The compounds below were run against T1, N-type calcium channel α1B (Cav2.2), β3 and α2δ subunits (Homo sapiens, UniProt Q00975) (assay: Functional assay, antagonism of N-type calcium channel (FDSS calcium mobilization response to KCl depolarization)). Details: 1 μM compound; FDSS, 50 mM KCl.
T1 construct: expressed in transfected cells
Assay type: cell-based
Experimental: A stable cell line (HEK parent) co-expressing the α1B (Cav2.2), β3 and α2δ subunits of the N-type calcium channel subunits was used. These cells were routinely grown as monolayers in low glucose-containing Dulbecco's Modified Eagle Medium supplemented with 10% FBS, 2 mM L-glutamine, 100 I.U./mL penicillin, 100 μg/mL streptomycin, 400 μg/mL G418 and 200 μg/mL Zeocin (split ratio=1:5). Cells were maintained in 5% CO2 at 37° C. Compounds of Formula (I) were prepared as 10 mM stocks in DMSO from neat compound, if available. Otherwise, the 5 or 10 mM DMSO stock solutions provided in-house were used.
Calcium mobilization responses to KCl depolarization were evaluated by measuring the intensity of calcium-mediated fluorescent signal in the presence of BD Calcium Assay Dye (BD Biosciences, Franklin Lakes, N.J., U.S.A.), utilizing a Functional Drug Screening System (FDSS) by Hamamatsu Corporation (Bridgewater, N.J. U.S.A.).
Twenty-four hr prior to assay, cells were seeded in clear-base poly-D-lysine-coated 384-well plates (BD Biosciences) at a density of 5,000 cells per well in culture medium and grown overnight in 5% CO2 at 37° C. On the day of assay, growth media were removed, and cells were loaded with BD calcium assay dye (BD Biosciences) for 35 min at 37° C. under 5% CO2 and then for 25 min at room temp. Utilizing the FDSS, cells were exposed to representative compounds of Formula (I) at varying concentrations, and intracellular calcium was measured for 5 min prior to the addition of 50 mM KCl for an additional 3 min of measurement.
IC50 values for representative compounds of Formula (I) were determined from six-point concentration-response experiments and represent the concentration of said compound required to inhibit 50% of the maximal response. Maximal fluorescence intensity (FI) achieved upon addition of 50 mM KCl was exported from the FDSS software and further analyzed using GraphPad Prism 3.02 (Graph Pad Software Inc., San Diego, Calif., U.S.A.). Data were normalized to the maximum average counts from quadruplicate wells for each condition in the presence of 50 mM KCl and to the minimum average counts in the presence of buffer. Theoretical curves were generated using nonlinear regression curve-fitting analysis of either sigmoidal concentration-response or sigmoidal concentration-response (variable slope), and the IC50 values with the best-fit curve determined by GraphPad Prism were reported.

T1 sequence (Q00975 whole entry): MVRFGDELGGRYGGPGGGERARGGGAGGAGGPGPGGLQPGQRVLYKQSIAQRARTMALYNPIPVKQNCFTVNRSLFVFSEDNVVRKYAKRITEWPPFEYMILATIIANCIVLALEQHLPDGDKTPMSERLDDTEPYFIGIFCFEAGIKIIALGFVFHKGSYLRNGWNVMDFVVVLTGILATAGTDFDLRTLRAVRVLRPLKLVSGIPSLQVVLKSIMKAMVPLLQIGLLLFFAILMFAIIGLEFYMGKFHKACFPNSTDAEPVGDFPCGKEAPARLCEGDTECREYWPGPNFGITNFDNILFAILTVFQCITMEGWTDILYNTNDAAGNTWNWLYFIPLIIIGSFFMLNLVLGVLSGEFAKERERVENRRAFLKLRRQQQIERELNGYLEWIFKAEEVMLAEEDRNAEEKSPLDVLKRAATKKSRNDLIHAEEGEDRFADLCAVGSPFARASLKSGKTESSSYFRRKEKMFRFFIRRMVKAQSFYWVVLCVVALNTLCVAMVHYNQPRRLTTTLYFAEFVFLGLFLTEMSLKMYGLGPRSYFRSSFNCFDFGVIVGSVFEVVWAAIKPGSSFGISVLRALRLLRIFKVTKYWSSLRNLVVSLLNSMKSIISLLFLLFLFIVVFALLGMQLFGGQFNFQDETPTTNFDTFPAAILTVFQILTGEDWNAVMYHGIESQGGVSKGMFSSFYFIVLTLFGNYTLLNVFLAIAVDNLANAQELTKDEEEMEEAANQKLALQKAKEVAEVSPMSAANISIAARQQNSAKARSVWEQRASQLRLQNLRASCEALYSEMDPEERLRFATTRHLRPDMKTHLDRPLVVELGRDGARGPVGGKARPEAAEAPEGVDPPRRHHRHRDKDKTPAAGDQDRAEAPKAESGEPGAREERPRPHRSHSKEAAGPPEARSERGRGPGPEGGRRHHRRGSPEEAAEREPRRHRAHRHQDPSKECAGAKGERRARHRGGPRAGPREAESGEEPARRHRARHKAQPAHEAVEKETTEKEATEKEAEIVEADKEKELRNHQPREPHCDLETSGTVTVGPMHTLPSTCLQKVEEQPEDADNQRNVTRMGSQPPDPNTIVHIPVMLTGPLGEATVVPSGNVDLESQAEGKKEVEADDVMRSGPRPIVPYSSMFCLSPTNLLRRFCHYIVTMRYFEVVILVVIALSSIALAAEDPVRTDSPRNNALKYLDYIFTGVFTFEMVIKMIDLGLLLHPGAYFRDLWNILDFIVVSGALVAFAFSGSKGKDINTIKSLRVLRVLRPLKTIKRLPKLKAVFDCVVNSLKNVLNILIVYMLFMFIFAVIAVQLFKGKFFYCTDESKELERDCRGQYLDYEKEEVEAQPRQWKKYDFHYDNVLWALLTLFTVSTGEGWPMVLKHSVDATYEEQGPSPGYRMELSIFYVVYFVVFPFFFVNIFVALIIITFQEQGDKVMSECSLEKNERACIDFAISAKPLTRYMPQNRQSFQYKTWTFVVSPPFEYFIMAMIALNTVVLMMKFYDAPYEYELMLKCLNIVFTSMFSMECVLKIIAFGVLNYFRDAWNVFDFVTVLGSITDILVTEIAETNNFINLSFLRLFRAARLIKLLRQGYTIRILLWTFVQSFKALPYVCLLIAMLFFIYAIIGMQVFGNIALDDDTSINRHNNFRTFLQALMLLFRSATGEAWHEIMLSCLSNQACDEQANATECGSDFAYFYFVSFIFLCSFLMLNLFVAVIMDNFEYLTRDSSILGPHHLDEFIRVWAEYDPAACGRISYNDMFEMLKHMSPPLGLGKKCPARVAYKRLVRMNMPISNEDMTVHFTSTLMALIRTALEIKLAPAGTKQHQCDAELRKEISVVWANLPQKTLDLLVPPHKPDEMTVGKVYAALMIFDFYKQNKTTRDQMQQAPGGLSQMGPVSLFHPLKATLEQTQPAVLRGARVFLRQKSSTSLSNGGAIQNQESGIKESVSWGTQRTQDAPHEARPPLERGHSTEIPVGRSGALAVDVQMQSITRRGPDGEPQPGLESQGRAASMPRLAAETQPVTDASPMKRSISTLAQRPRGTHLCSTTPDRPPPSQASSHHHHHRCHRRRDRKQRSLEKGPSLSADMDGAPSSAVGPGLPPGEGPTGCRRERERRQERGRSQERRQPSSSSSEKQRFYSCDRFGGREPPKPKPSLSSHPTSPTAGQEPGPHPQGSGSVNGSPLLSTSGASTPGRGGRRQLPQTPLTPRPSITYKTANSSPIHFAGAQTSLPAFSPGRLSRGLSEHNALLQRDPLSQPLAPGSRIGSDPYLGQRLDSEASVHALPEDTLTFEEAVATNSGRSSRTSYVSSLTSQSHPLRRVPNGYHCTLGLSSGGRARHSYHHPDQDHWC
T1 sequence (P54284 whole entry partner): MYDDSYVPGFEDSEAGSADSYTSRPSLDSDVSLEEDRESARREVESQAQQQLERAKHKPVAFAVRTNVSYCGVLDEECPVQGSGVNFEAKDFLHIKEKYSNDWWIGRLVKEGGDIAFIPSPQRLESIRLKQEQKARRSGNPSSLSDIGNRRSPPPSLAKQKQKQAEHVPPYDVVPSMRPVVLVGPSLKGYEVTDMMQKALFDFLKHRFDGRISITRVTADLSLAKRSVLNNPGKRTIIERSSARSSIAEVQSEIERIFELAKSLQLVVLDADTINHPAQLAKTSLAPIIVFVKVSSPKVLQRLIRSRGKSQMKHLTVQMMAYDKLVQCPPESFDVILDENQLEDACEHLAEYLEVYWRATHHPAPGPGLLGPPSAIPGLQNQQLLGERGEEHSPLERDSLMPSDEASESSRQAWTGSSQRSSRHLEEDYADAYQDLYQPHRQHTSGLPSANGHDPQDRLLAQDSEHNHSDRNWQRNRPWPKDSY
T1 sequence (P54289 25-956 partner limits assumed): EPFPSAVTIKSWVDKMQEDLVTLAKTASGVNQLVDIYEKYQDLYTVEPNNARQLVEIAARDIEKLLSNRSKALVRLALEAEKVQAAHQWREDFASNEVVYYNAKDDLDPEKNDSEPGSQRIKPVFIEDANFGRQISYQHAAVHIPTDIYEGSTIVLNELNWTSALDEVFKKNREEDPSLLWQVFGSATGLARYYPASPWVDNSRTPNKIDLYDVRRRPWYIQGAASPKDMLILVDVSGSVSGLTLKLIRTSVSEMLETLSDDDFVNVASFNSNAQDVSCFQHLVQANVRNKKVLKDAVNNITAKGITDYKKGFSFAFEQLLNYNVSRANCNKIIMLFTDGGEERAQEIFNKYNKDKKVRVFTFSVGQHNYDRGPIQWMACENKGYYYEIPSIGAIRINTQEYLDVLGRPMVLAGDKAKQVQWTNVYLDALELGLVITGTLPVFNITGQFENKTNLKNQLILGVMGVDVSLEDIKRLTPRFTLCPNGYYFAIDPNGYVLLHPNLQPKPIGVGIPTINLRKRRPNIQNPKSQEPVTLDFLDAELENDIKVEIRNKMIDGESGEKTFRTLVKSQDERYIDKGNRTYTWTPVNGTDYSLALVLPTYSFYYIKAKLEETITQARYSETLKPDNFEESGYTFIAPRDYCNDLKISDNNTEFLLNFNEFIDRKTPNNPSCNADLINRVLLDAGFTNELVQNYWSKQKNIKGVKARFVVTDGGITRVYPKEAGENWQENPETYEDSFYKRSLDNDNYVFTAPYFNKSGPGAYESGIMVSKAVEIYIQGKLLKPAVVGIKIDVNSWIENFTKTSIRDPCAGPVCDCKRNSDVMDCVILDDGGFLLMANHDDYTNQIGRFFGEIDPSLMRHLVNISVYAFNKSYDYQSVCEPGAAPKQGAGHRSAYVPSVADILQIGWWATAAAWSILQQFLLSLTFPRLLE
T1 sequence (P54289 957-1103 partner limits assumed): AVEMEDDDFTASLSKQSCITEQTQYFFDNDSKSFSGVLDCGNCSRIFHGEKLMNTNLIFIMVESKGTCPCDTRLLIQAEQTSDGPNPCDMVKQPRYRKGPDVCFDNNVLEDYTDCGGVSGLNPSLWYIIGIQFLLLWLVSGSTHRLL

Row | inhibition at 1 µM [%] | Structure (SMILES)
1 | 58 | CCc1ccccc1-n1nc2c(c1-c1ccc(Cl)cc1)CN(C(=O)c1ccccn1)C2 [Cpd 7, 3-(4-Chlorophenyl)-2-(2-ethylphenyl)-5-(pyridin-2-ylcarbonyl)-2,4,5,6-tetrahydropyrrolo[3,4-c]pyrazole]
2 | 63 | CCc1ccccc1-n1nc2c(c1-c1ccc(Cl)cc1)CN(C(=O)c1cc(C)on1)C2 [Cpd 9, 3-(4-Chlorophenyl)-2-(2-ethylphenyl)-5-[(5-methylisoxazol-3-yl)carbonyl]-2,4,5,6-tetrahydropyrrolo[3,4-c]pyrazole]
3 | 59 | CCc1ccccc1-n1nc2c(c1-c1ccc(Cl)cc1)CN(C(=O)CNS(=O)(=O)C(F)(F)F)C2 [Cpd 13, N-{2-[3-(4-Chlorophenyl)-2-(2-ethylphenyl)-2,6-dihydropyrrolo[3,4-c]pyrazol-5(4H)-yl]-2-oxoethyl}-1,1,1-trifluoromethanesulfonamide]
4 | 60 | CC(C)(C)OC(=O)N1Cc2nn(-c3ccccc3C(F)(F)F)c(-c3ccc(Cl)cc3)c2C1 [Cpd 14, tert-Butyl 3-(4-chlorophenyl)-2-[2-(trifluoromethyl)phenyl]-2,6-dihydropyrrolo[3,4-c]pyrazole-5(4H)-carboxylate]
5 | 64 | COC(=O)c1ccc(N2Cc3nn(-c4ccccc4OC(F)(F)F)c(-c4ccc(Cl)cc4)c3C2)cc1 [Cpd 24, Methyl 4-[3-(4-chlorophenyl)-2-[2-(trifluoromethoxy)phenyl]-2,6-dihydropyrrolo[3,4-c]pyrazol-5(4H)-yl]benzoate]
6 | 57 | N#Cc1ccc(N2Cc3nn(-c4ccccc4OC(F)(F)F)c(-c4ccc(Cl)cc4)c3C2)cc1 [Cpd 25, 4-[3-(4-Chlorophenyl)-2-[2-(trifluoromethoxy)phenyl]-2,6-dihydropyrrolo[3,4-c]pyrazol-5(4H)-yl]benzonitrile]
7 | 57 | O=S(=O)(NCCN1CCOCC1)c1ccc(N2Cc3nn(-c4ccccc4OC(F)(F)F)c(-c4ccc(Cl)cc4)c3C2)cc1 [Cpd 26, 4-[3-(4-Chlorophenyl)-2-[2-(trifluoromethoxy)phenyl]-2,6-dihydropyrrolo[3,4-c]pyrazol-5(4H)-yl]-N-(2-morpholin-4-ylethyl)benzenesulfonamide]

Row | Structure (SMILES) | inhibition at 1 µM [%]
8 | N#Cc1cccc(N2Cc3nn(-c4ccccc4OC(F)(F)F)c(-c4ccc(Cl)cc4)c3C2)c1 [Cpd 23, 3-[3-(4-Chlorophenyl)-2-[2-(trifluoromethoxy)phenyl]-2,6-dihydropyrrolo[3,4-c]pyrazol-5(4H)-yl]benzonitrile] | 52

Same assay, conditions: HEK stable cell line; 50 mM KCl depolarization; six-point concentration-response

Row | Structure (SMILES) | IC50 [nM]
9 | CCc1ccccc1-n1nc2c(c1-c1ccc(Cl)cc1)CN(C(=O)c1cccnc1)C2 [Cpd 4, 3-(4-Chlorophenyl)-2-(2-ethylphenyl)-5-(pyridin-3-ylcarbonyl)-2,4,5,6-tetrahydropyrrolo[3,4-c]pyrazole] | 200
10 | CCc1ccccc1-n1nc2c(c1-c1ccc(Cl)cc1)CN(C(=O)c1ccco1)C2 [Cpd 8, 3-(4-Chlorophenyl)-2-(2-ethylphenyl)-5-(furan-2-ylcarbonyl)-2,4,5,6-tetrahydropyrrolo[3,4-c]pyrazole] | 600
11 | CCc1ccccc1-n1nc2c(c1-c1ccc(Cl)cc1)CN(C(=O)COC)C2 [Cpd 10, 3-(4-Chlorophenyl)-2-(2-ethylphenyl)-5-(methoxyacetyl)-2,4,5,6-tetrahydropyrrolo[3,4-c]pyrazole] | 280
12 | CCc1ccccc1-n1nc2c(c1-c1ccc(Cl)cc1)CN(C(=O)CNS(C)(=O)=O)C2 [Cpd 12, N-{2-[3-(4-Chlorophenyl)-2-(2-ethylphenyl)-2,6-dihydropyrrolo[3,4-c]pyrazol-5(4H)-yl]-2-oxoethyl}methanesulfonamide] | 520
13 | CS(=O)(=O)N1Cc2nn(-c3ccccc3C(F)(F)F)c(-c3ccc(Cl)cc3)c2C1 [Cpd 15, 3-(4-Chlorophenyl)-5-(methylsulfonyl)-2-[2-(trifluoromethyl)phenyl]-2,4,5,6-tetrahydropyrrolo[3,4-c]pyrazole] | 280
14 | Cc1ccc(S(=O)(=O)N2Cc3nn(-c4ccccc4C(F)(F)F)c(-c4ccc(Cl)cc4)c3C2)cc1 [Cpd 17, 3-(4-Chlorophenyl)-5-[(4-methylphenyl)sulfonyl]-2-[2-(trifluoromethyl)phenyl]-2,4,5,6-tetrahydropyrrolo[3,4-c]pyrazole] | 300
15 | CC(C)(C)OC(=O)NCC(=O)N1Cc2nn(-c3ccccc3C(F)(F)F)c(-c3ccc(Cl)cc3)c2C1 [Cpd 18, tert-Butyl{2-[3-(4-chlorophenyl)-2-[2-(trifluoromethyl)phenyl]-2,6-dihydropyrrolo[3,4-c]pyrazol-5(4H)-yl]-2-oxoethyl}carbamate] | 480
16 | CC(C)(C)OC(=O)N1Cc2nn(-c3ccccc3OC(F)(F)F)c(-c3ccc(Cl)cc3)c2C1 [Cpd 19, tert-Butyl 3-(4-chlorophenyl)-2-[2-(trifluoromethoxy)phenyl]-2,6-dihydropyrrolo[3,4-c]pyrazole-5(4H)-carboxylate] | 300
17 | O=C(N1Cc2nn(-c3ccccc3OC(F)(F)F)c(-c3ccc(Cl)cc3)c2C1)C(F)(F)F [Cpd 21, 3-(4-Chlorophenyl)-5-(trifluoroacetyl)-2-[2-(trifluoromethoxy)phenyl]-2,4,5,6-tetrahydropyrrolo[3,4-c]pyrazole] | 300

Other lines, results leading:

Row | IC50 [nM] | Structure (SMILES)
18 | 180 | CCc1ccccc1-n1nc2c(c1-c1ccc(Cl)cc1)CN(C(=O)OC(C)(C)C)C2 [Cpd 1, tert-Butyl 3-(4-chlorophenyl)-2-(2-ethylphenyl)-2,6-dihydropyrrolo[3,4-c]pyrazole-5(4H)-carboxylate]
19 | 180 | COc1ccccc1-n1nc2c(c1-c1ccc(Cl)cc1)CN(C(=O)CNC(=O)OC(C)(C)C)C2 [Cpd 29, tert-Butyl{2-[3-(4-chlorophenyl)-2-(2-methoxyphenyl)-2,6-dihydropyrrolo[3,4-c]pyrazol-5(4H)-yl]-2-oxoethyl}carbamate]
20 | 170 | COc1ccccc1-n1nc2c(c1-c1ccc(Cl)cc1)CN(C(=O)N(C)C)C2 [Cpd 34, 3-(4-Chlorophenyl)-2-(2-methoxyphenyl)-N,N-dimethyl-2,6-dihydropyrrolo[3,4-c]pyrazole-5(4H)-carboxamide]
21 | 160 | CC(C)S(=O)(=O)N1Cc2nn(-c3ccccc3C(F)(F)F)c(-c3ccc(Cl)cc3)c2C1 [Cpd 16, 3-(4-Chlorophenyl)-5-[(1-methylethyl)sulfonyl]-2-[2-(trifluoromethyl)phenyl]-2,4,5,6-tetrahydropyrrolo[3,4-c]pyrazole]
22 | 150 | CCc1ccccc1-n1nc2c(c1-c1ccc(Cl)cc1)CN(S(=O)(=O)C(F)(F)F)C2 [Cpd 3, 3-(4-Chlorophenyl)-2-(2-ethylphenyl)-5-[(trifluoromethyl)sulfonyl]-2,4,5,6-tetrahydropyrrolo[3,4-c]pyrazole]
23 | 100 | COc1ccccc1-n1nc2c(c1-c1ccc(Cl)cc1)CN(S(=O)(=O)CCOc1ccccc1)C2 [Cpd 43, 3-(4-Chlorophenyl)-2-(2-methoxyphenyl)-5-[(2-phenoxyethyl)sulfonyl]-2,4,5,6-tetrahydropyrrolo[3,4-c]pyrazole]
24 | 77 | O=S1(=O)CCC(S(=O)(=O)N2Cc3nn(-c4ccccc4OC(F)(F)F)c(-c4ccc(Cl)cc4)c3C2)C1 (stereo not shown) [Cpd 48, 3-(4-Chlorophenyl)-5-[(1,1-dioxidotetrahydrothiophen-3-yl)sulfonyl]-2-[2-(trifluoromethoxy)phenyl]-2,4,5,6-tetrahydropyrrolo[3,4-c]pyrazole]
25 | 53 | COc1ccccc1-n1nc2c(c1-c1ccc(Cl)cc1)CN(S(=O)(=O)CCN1C(=O)c3ccccc3C1=O)C2 [Cpd 38, 2-(2-{[3-(4-Chlorophenyl)-2-(2-methoxyphenyl)-2,6-dihydropyrrolo[3,4-c]pyrazol-5(4H)-yl]sulfonyl}ethyl)-1H-isoindole-1,3(2H)-dione]
26 | 48 | COc1ccccc1-n1nc2c(c1-c1ccc(Cl)cc1)CN(S(=O)(=O)CCN1C(=O)CCC1=O)C2 [Cpd 42, 1-(2-{[3-(4-Chlorophenyl)-2-(2-methoxyphenyl)-2,6-dihydropyrrolo[3,4-c]pyrazol-5(4H)-yl]sulfonyl}ethyl)pyrrolidine-2,5-dione]
27 | 27 | COc1ccccc1-n1nc2c(c1-c1ccc(Cl)cc1)CN(S(=O)(=O)Cc1ccccc1)C2 [Cpd 39, 5-(Benzylsulfonyl)-3-(4-chlorophenyl)-2-(2-methoxyphenyl)-2,4,5,6-tetrahydropyrrolo[3,4-c]pyrazole]
28 | 7 | CCOc1ccccc1-n1nc2c(c1-c1ccc(Cl)cc1)CN(S(=O)(=O)Cc1ccccc1)C2 [Cpd 53, 5-(Benzylsulfonyl)-3-(4-chlorophenyl)-2-(2-ethoxyphenyl)-2,4,5,6-tetrahydropyrrolo[3,4-c]pyrazole]

From patent publication US8846949B2, “Pyrrolopyrazoles as N-type calcium channel blockers” (Janssen Pharmaceutica NV, priority 2012, dated 2014)
